SMILES strings stand for the structures. Structures can show the parent of a compound that is named as a salt.

One test addresses HSD17B13 enzyme (Homo sapiens (Human), UniProt Q7Z5P4). As to the kind of experiment: hHSD17B13 IC50 Assay (FAC beta-estradiol), purified protein enzyme activity assay with NAD(P)H-Glo luciferase readout. Type of test: biochemical. The settings on record: geometric mean, 12 μM FAC beta-estradiol, 500 μM NAD+, read-out: hHSD17B13_IC50 GMean IC50. The method in brief: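 Purified human HSD17B13 (30 nM FAC) incubated with compound, beta-estradiol and NAD+ for 2 h at room temperature in the dark. NADH formation was detected by NAD(P)H-Glo luminescence after 1 h. RLUs normalized to uninhibited enzyme (vehicle) as zero effect.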

The target in another test is wild type human HSD17B13 (Homo sapiens (Human), UniProt Q7Z5P4). The test is described as follows: HEK_Beta-Est LCMS_IC50_Tekcel, whole-cell HEK-HSD17B13 inhibition assay, estrone production by LCMS. Type of test: cell-based. The settings on record: geometric mean, HEK cells stably expressing wild type human HSD17B13, 25 μM FAC beta-estradiol, read-out: HEK_Beta-Est LCMS_IC50—Tekcel GMean IC50. The method in brief: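 Readout was LCMS quantitation of estrone made from beta-estradiol with NAD+ as cofactor. Whole HEK-HSD17B13 cells were given compound for 1 hour, then the reaction for 2 hours, both at 37° C. Product area ratios were normalized to vehicle controls as zero percent effect.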
Sequence of wild type human HSD17B13 (Q7Z5P4 20-300): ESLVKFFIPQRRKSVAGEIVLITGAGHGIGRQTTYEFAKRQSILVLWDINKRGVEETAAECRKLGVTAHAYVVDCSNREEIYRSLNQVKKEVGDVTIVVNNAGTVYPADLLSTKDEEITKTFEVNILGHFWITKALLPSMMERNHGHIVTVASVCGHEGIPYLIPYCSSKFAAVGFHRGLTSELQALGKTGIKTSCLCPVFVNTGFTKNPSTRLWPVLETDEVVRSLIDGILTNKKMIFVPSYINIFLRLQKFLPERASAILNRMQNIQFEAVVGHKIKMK

Sequence of HSD17B13 enzyme (Q7Z5P4 20-300): as above

The term IC50 denotes the midpoint of a concentration-inhibition curve. Turning to `Cn1cc(-c2ccc3cn([C@H]4CC[C@H](CNC(=O)c5cc(F)c(O)c(F)c5)CC4)nc3c2)cn1` [Example 60, 3,5-difluoro-4-hydroxy-N-({(1r,4r)-4-[6-(1-methyl-1H-pyrazol-4-yl)-2H-indazol-2-yl]cyclohexyl}methyl) benzamide], the figures for the IC50 on HSD17B13 enzyme and on wild type human HSD17B13 were 5.8 nM and 94 nM, respectively.

Take `O=C(NC[C@H]1CC[C@H](c2nc(-c3ncc(C(F)(F)F)cn3)no2)CC1)c1cc(F)c(O)cc1F` [Example 198, 2,5-difluoro-4-hydroxy-N-{[(1r,4r)-4-{3-[5-(trifluoromethyl)pyrimidin-2-yl]-1,2,4-oxadiazol-5-yl}cyclohexyl]methyl} benzamide]: the 50% inhibitory concentration (IC50) at HSD17B13 enzyme stood at 6.5 nM; on wild type human HSD17B13, 310 nM.

As to `O=C(NC[C@H]1CC[C@H](n2cc3ccc(-c4ncccn4)cc3n2)CC1)c1cc(F)c(O)c(F)c1F` [Example 27, 2,3,5-trifluoro-4-hydroxy-N-({(1r,4r)-4-[6-(pyrimidin-2-yl)-2H-indazol-2-yl]cyclohexyl}methyl) benzamide], the IC50 is 12 nM on HSD17B13 enzyme and 180 nM at wild type human HSD17B13.

As to `Cc1c(-c2ccc3cn([C@H]4CC[C@H](CNC(=O)c5cc(F)c(O)c(F)c5)CC4)nc3c2)cnn1C` [Example 39, N-({(1r,4r)-4-[6-(1,5-dimethyl-1H-pyrazol-4-yl)-2H-indazol-2-yl]cyclohexyl}methyl)-3,5-difluoro-4-hydroxybenzamide], the 50% inhibitory concentration (IC50) at HSD17B13 enzyme amounted to 5.7 nM; on wild type human HSD17B13, 250 nM.

With `O=C(NC[C@H]1CC[C@H](n2cc3ccc(-c4cnccn4)cc3n2)CC1)c1cc(F)c(O)c(F)c1` [Example 65, 3,5-difluoro-4-hydroxy-N-({(1r,4r)-4-[6-(pyrazin-2-yl)-2H-indazol-2-yl]cyclohexyl}methyl) benzamide], the IC50 at HSD17B13 enzyme is 13 nM; on wild type human HSD17B13 it was 170 nM.

`Cc1cc(C)nc(-c2ccc3cn([C@H]4CC[C@H](CNC(=O)c5cc(F)c(O)c(F)c5)CC4)nc3c2)n1` [Example 52, N-({(1r,4r)-4-[6-(4,6-dimethylpyrimidin-2-yl)-2H-indazol-2-yl]cyclohexyl}methyl)-3,5-difluoro-4-hydroxybenzamide]: the figures for the IC50 at HSD17B13 enzyme and on wild type human HSD17B13 were 15 nM and 330 nM, respectively.

For the compound `O=C(NC[C@H]1CC[C@H](n2cc3ccc(-c4cccnc4)cc3n2)CC1)c1cc(F)c(O)c(F)c1` [Example 72, 3,5-difluoro-4-hydroxy-N-({(1r,4r)-4-[6-(pyridin-3-yl)-2H-indazol-2-yl]cyclohexyl}methyl) benzamide], the concentration for half-maximal inhibition (IC50) was determined as 7.8 nM at HSD17B13 enzyme and 170 nM at wild type human HSD17B13.

As for `O=C(NC[C@]12CC[C@](c3nc4ccccc4o3)(CC1)CC2)c1cc(F)c(O)c(F)c1` [Example 141, N-{[4-(1,3-benzoxazol-2-yl)bicyclo[2.2.2]octan-1-yl]methyl}-3,5-difluoro-4-hydroxybenzamide], the figures for the IC50 at HSD17B13 enzyme and at wild type human HSD17B13 were 8.8 nM and 190 nM, respectively.

Take `O=C(NC[C@]12CC[C@](c3nc(-c4cnc(C(F)(F)F)cn4)no3)(CC1)CC2)c1cc(F)c(O)c(F)c1F` [Example 178, 2,3,5-trifluoro-4-hydroxy-N-[(4-{3-[5-(trifluoromethyl)pyrazin-2-yl]-1,2,4-oxadiazol-5-yl}bicyclo[2.2.2]octan-1-yl)methyl]benzamide]: the half-inhibitory concentration (IC50) is 7.9 nM on HSD17B13 enzyme and 150 nM at wild type human HSD17B13.

For `O=C(NC[C@H]1CC[C@H](n2cc3ccc(Cl)cc3n2)CC1)c1cc(F)c(O)cc1F` [Example 144, N-{[(1r,4r)-4-(6-chloro-2H-indazol-2-yl)cyclohexyl]methyl}-2,5-difluoro-4-hydroxybenzamide, trifluoroacetate salt], the half-maximal inhibitory concentration (IC50) at HSD17B13 enzyme stood at 14 nM; at wild type human HSD17B13 it was 440 nM.

Consider `O=C(NC[C@H]1CC[C@H](n2cc3ccc(-c4cnccn4)cc3n2)CC1)c1cc(F)c(O)c(F)c1F` [Example 28, 2,3,5-trifluoro-4-hydroxy-N-({(1r,4r)-4-[6-(pyrazin-2-yl)-2H-indazol-2-yl]cyclohexyl}methyl)benzamide], for which the IC50 at HSD17B13 enzyme was 8.7 nM; at wild type human HSD17B13, 170 nM.

For the compound `O=C(NC[C@H]1CC[C@H](n2cc3cc(C(F)(F)F)ccc3n2)CC1)c1cc(F)c(O)cc1F` [Example 183, 2,5-difluoro-4-hydroxy-N-({(1r,4r)-4-[5-(trifluoromethyl)-2H-indazol-2-yl]cyclohexyl}methyl)benzamide], the half-maximal inhibitory concentration (IC50) on HSD17B13 enzyme was determined as 10 nM; on wild type human HSD17B13 it was 450 nM.

As for `Cn1cc(-c2cc3cn([C@H]4CC[C@H](CNC(=O)c5cc(F)c(O)c(F)c5)CC4)nc3cn2)cn1` [Example 200, 3,5-difluoro-4-hydroxy-N-({(1r,4r)-4-[5-(1-methyl-1H-pyrazol-4-yl)-2H-pyrazolo[3,4-c]pyridin-2-yl]cyclohexyl}methyl) benzamide], the figures for the IC50 on HSD17B13 enzyme and at wild type human HSD17B13 were 10 nM and 350 nM, respectively.

With `N#Cc1ccc2cn([C@H]3CC[C@H](CNC(=O)c4cc(F)c(O)c(F)c4)CC3)nc2c1` [Example 134, N-{[(1r,4r)-4-(6-cyano-2H-indazol-2-yl)cyclohexyl]methyl}-3,5-difluoro-4-hydroxybenzamide, ammonium salt], the IC50 at HSD17B13 enzyme came to 32 nM; at wild type human HSD17B13, 470 nM.

With `Cc1nn(C)cc1-c1ccc2cn([C@H]3CC[C@H](CNC(=O)c4cc(F)c(O)c(F)c4)CC3)nc2c1` [Example 50, N-({(1r,4r)-4-[6-(1,3-dimethyl-1H-pyrazol-4-yl)-2H-indazol-2-yl]cyclohexyl}methyl)-3,5-difluoro-4-hydroxybenzamide], the IC50 on HSD17B13 enzyme is 11 nM; on wild type human HSD17B13, 250 nM.

For `O=C(NC[C@H]1CC[C@H](n2cc3cc(OCC4CC4)ncc3n2)CC1)c1cc(F)c(O)c(F)c1` [Example 32, N-({(1r,4r)-4-[5-(cyclopropyl-methoxy)-2H-pyrazolo[3,4-c]pyridin-2-yl]cyclohexyl}methyl)-3,5-difluoro-4-hydroxybenzamide, ammonium salt], the concentration for half-maximal inhibition (IC50) at HSD17B13 enzyme was 25 nM; on wild type human HSD17B13 it was 400 nM.

Take `CC(C)(C)C(=O)Nc1ccc(-c2noc([C@H]3CC[C@H](CNC(=O)c4cc(F)c(O)c(F)c4)CC3)n2)nn1` [Example 17, N-{[(1r,4r)-4-{3-[6-(2,2-Dimethylpropanamido)pyridazin-3-yl]-1,2,4-oxadiazol-5-yl}cyclohexyl]methyl}-3,5-difluoro-4-hydroxybenzamide, ammonium salt]: the IC50 at HSD17B13 enzyme was determined as 12 nM; at wild type human HSD17B13, 270 nM.

Consider `O=C(NC[C@H]1CC[C@H](n2cc3ccc(F)cc3n2)CC1)c1cc(F)c(O)c(F)c1` [Example 16, 3,5-Difluoro-N-{[(1r,4r)-4-(6-fluoro-2H-indazol-2-yl)cyclohexyl]methyl}-4-hydroxybenzamide, ammonium salt], for which the IC50 came to 17 nM at HSD17B13 enzyme and 310 nM on wild type human HSD17B13.

Regarding `O=C(NC[C@H]1CC[C@H](n2cc3ccc(Cl)cc3n2)CC1)c1cc(F)c(O)c(F)c1F` [Example 25, N-{[(1r,4r)-4-(6-chloro-2H-indazol-2-yl)cylohexyl]methyl}-2,3,5-trifluoro-4-hydroxybenzamide], the values for the IC50 on HSD17B13 enzyme and at wild type human HSD17B13 were 14 nM and 300 nM, respectively.

As to `O=C(NC[C@H]1CC[C@H](n2cc3ccc(-c4cnn(C(F)F)c4)cc3n2)CC1)c1cc(F)c(O)c(F)c1` [Example 44, N-{[(1r,4r)-4-{6-[1-(difluoromethyl)-1H-pyrazol-4-yl]-2H-indazol-2-yl}cyclohexyl]methyl}-3,5-difluoro-4-hydroxybenzamide], the IC50 on HSD17B13 enzyme was under 2.6 nM; at wild type human HSD17B13, 92 nM.

As to `COc1ccc(-c2noc([C@]34CC[C@](CNC(=O)c5cc(F)c(O)c(F)c5)(CC3)CC4)n2)nn1` [Example 124, 3,5-difluoro-4-hydroxy-N-({4-[3-(6-methoxypyridazin-3-yl)-1,2,4-oxadiazol-5-yl]bicyclo [2.2.2]octan-1-yl}methyl)benzamide], the results for the half-inhibitory concentration (IC50) at HSD17B13 enzyme and at wild type human HSD17B13 were 7.1 nM and 160 nM, respectively.

Turning to `O=C(NC[C@H]1CC[C@H](c2nc(-c3ncc(C(F)(F)F)cn3)no2)CC1)c1cc(F)c(O)c(F)c1` [Example 4, 3,5-Difluoro-4-hydroxy-N-{[(1r,4r)-4-{3-[5-(trifluoromethyl)pyrimidin-2-yl]-1,2,4-oxadiazol-5-yl}cyclohexyl]methyl}benzamide], the half-maximal inhibitory concentration (IC50) amounted to 5.5 nM at HSD17B13 enzyme and 290 nM at wild type human HSD17B13.

Regarding `Cc1ccc(-c2noc([C@H]3CC[C@H](CNC(=O)c4cc(F)c(O)c(F)c4F)CC3)n2)nn1` [Example 212, 2,3,5-trifluoro-4-hydroxy-N-({(1r,4r)-4-[3-(6-methylpyridazin-3-yl)-1,2,4-oxadiazol-5-yl]cyclohexyl}methyl) benzamide], the values for the half-maximal inhibitory concentration (IC50) on HSD17B13 enzyme and on wild type human HSD17B13 were 26 nM and 2300 nM, respectively.

On to `O=C(NC[C@H]1CC[C@H](n2cc3cc(Cl)ccc3n2)CC1)c1cc(F)c(O)c(F)c1` [Example 132, N-{[(1r,4r)-4-(5-chloro-2H-indazol-2-yl)cyclohexyl]methyl}-3,5-difluoro-4-hydroxybenzamide, ammonium salt], for which the IC50 at HSD17B13 enzyme came out at 14 nM; on wild type human HSD17B13, 140 nM.

With `COc1ccc2nn([C@H]3CC[C@H](CNC(=O)c4cc(F)c(O)c(F)c4)CC3)cc2c1` [Example 129, 3,5-difluoro-4-hydroxy-N-{[(1r,4r)-4-(5-methoxy-2H-indazol-2-yl)cyclohexyl]methyl}benzamide], the IC50 on HSD17B13 enzyme came out at 33 nM; on wild type human HSD17B13, 400 nM.

Take `O=C(NC[C@H]1CC[C@H](n2cc3ccc(-c4cscn4)cc3n2)CC1)c1cc(F)c(O)c(F)c1` [Example 69, 3,5-difluoro-4-hydroxy-N-({(1r,4r)-4-[6-(1,3-thiazol-4-yl)-2H-indazol-2-yl]cyclohexyl}methyl) benzamide]: the IC50 is 8.4 nM at HSD17B13 enzyme and 130 nM at wild type human HSD17B13.

The values are drawn from patent US20240150334A1, “HSD17B13 INHIBITORS AND/OR DEGRADERS” (Pfizer Inc., priority 2022, published 2024).
